Like-named read-outs stand apart in the source and are kept apart here.
Columns and labels:
[1] = system: human prostate cancer (PC-3); test: Cytotoxicity assay (WST-8), PC-3; format: cell-based; settings: Homo sapiens
Protocol: (§1) PANC-1 and MRC-5 was cultured in complete growth medium according to the ATCC protocols. Cells were grown at 37° C. and 5% CO2 in humidified air.
(§2) Cytotoxicity of total extracts of S. molesta was tested against PANC-1, A549, PC-3, and MRC-5. Cytotoxicity of the fractions was determined using A549 cells, a human non-small lung cancer cell line. Fractions were tested at 25, 50, and 100 μg/mL. The isolated pure compounds were tested in each of the cultured human tumor and normal cell lines at various concentrations between 1 and 100 μM with three replications. Human tumor and normal cells were inoculated into 96 well microtiter plates in 90 μL at plating densities ranging from 5,000 to 40,000 cells/well (measured by Z2 Coulter Counter of Beckman) depending on the doubling time of individual cell lines. Cell growth and viability was measured by WST-8 (Water Soluble Tetrazolium) assays following a standard protocol (Cell Counting Kit-8, Dojindo Molecular, Maryland). The WST-8 assay measured the relative activity of mitochondrial reductase enzymes in viable cells. A control WST reading (T0) before treatment was measured, then cells were continuously exposed to isolates for 48 h. After WST added and incubated for 2 h, the amount of formazan was measured by using a microplate spectrophotometer (μQuant spectrophotometer, Bio-Tek Instruments, Inc., Vermont) at 450 nm. TC or TD represents the readings of the untreated control or with tested compounds. Percent cell-growth (G) and percent cell-growth inhibition (GI) was calculated as: G=(TD−T0/TC−T0)×100; GI=[1−(TD−T0/TC−T0)]×100 for which TD≥T0; and G=(TD−T0/T0)×100; GI=[1−(TD−T0/T0)]×100 for which TD≤T0. […] Cancer drug doxorubicin was used as the positive controls in the cell-based assays.

[2] = system: human exocrine pancreatic cancer cells (BxPC-3); test: Cell proliferation assay (CCK-8), BxPC-3; format: cell-based; settings: 12, 24, 48, 72 h, FIG. 3
Protocol: (§3) CCK-8 (Dojindo Molecular, Maryland) was used to measure the proliferation response of salviniol (6) and montbretol (8) against human exocrine pancreatic cancer cell lines (PANC-1 and BxPC-3), according to the manufacturer's instructions. Cell were grown in growth medium plus 10% FBS and 5% antibiotics in 96-well plates and then were treated with various concentrations of test compounds and incubated for 12, 24, 48, and 72 h, respectively. The end of the incubation period, 10% CCK-8 solution was added to the wells. After 2 h incubation, the absorbance at 450 nm was measured. A calibration curve was prepared using the absorbance observed known numbers of viable cells.

[3] = system: human exocrine pancreatic cancer (PANC-1); test: Cytotoxicity assay (WST-8), PANC-1; format: cell-based; settings: Homo sapiens
Protocol: as §1, §2

[4] = system: human exocrine pancreatic cancer (BxPC-3); test: Cytotoxicity assay (WST-8), BxPC-3; format: cell-based; settings: Homo sapiens
human leukemia (HL-60) = test: Cytotoxicity assay (WST-8), HL-60; format: cell-based; settings: Homo sapiens
[5] = system: human breast cancer (MDA-MB-231); test: cells; format: cell-based
Excerpt: Human exocrine pancreatic cancer (PANC-1 and BxPC-3), non-small cell lung cancer (A549), prostate cancer (PC-3), breast cancer (MDA-MB-231), and leukemia (HL-60) were obtained from The University of Texas M. D. Anderson Cancer Center, Houston, Tex., and Normal human lung fibroblasts cells (MRC-5) was purchased from the American Type Culture Collection (ATCC). PC-3, A549 and HL-60 cells were maintained in RPMI 1640 medium supplemented with 10% (v/v) fetal bovine serum and antibiotics (1,000 units/mL penicillin-streptomycin solution, Hyclone). PANC-1 and MRC-5 was cultured in complete growth medium according to the ATCC protocols. Cells were grown at 37° C. and 5% CO2 in humidified air.
Cytotoxicity of total extracts of S. molesta was tested against PANC-1, A549, PC-3, and MRC-5. Cytotoxicity of the fractions was determined using A549 cells, a human non-small lung cancer cell line. Fractions were tested at 25, 50, and 100 μg/mL. The isolated pure compounds were tested in each of the cultured human tumor and normal cell lines at various concentrations between 1 and 100 μM with three replications. Human tumor and normal cells were inoculated into 96 well microtiter plates in 90 μL at plating densities ranging from 5,000 to 40,000 cells/well (measured by Z2 Coulter Counter of Beckman) depending on the doubling time of individual cell lines. Cell growth and viability was measured by WST-8 (Water Soluble Tetrazolium) assays following a standard protocol (Cell Counting Kit-8, Dojindo Molecular, Maryland). The WST-8 assay measured the relative activity of mitochondrial reductase enzymes in viable cells. A control WST reading (T0) before treatment was measured, then cells were continuously exposed to isolates for 48 h. After WST added and incubated for 2 h, the amount of formazan was measured by using a microplate spectrophotometer (μQuant spectrophotometer, Bio-Tek Instruments, Inc., Vermont) at 450 nm. TC or TD represents the readings of the untreated control or with tested compounds. Percent cell-growth (G) and percent cell-growth inhibition (GI) was calculated as: G=(TD−T0/TC−T0)×100; GI=[1−(TD−T0/TC−T0)]×100 for which TD≥T0; and G=(TD−T0/T0)×100; GI=[1−(TD−T0/T0)]×100 for which TD≤T0. To determine the inhibitory potency of active compounds (GI50, 50% cell-growth inhibition), tests were extended to additional concentrations (varying from 0.01 to 100 μM). Cancer drug doxorubicin was used as the positive controls in the cell-based assays.

[6] = system: human non-small cell lung cancer (A549); test: Cytotoxicity assay (WST-8), A549; format: cell-based; settings: Homo sapiens
Protocol: as §1, §2

[7] = system: human exocrine pancreatic cancer cells (PANC-1); test: Cell proliferation assay (CCK-8), PANC-1; format: cell-based; settings: 12, 24, 48, 72 h, FIG. 3
Protocol: as §3

[8] = system: normal human lung fibroblasts cells (MRC-5); test: Cytotoxicity assay (WST-8), MRC-5; format: cell-based
Protocol: as §1, §2

[9] = Cytotoxicity assay (WST-8), MRC-5; format: cell-based, human; settings: human
Protocol: as §1, §2

[10] = PANC-1, Table 1, read-out: Activity against human exocrine pancreatic tumor PANC-1 (GI50)
[11] = BXPC-3, Table 1, read-out: Activity against human exocrine pancreatic tumor BxPC-3 (GI50) (converted)
[12] = A549, Table 1, read-out: Activity against human non-small cell lung tumor A549 (GI50) (converted)

CC(C)c1cc2c(cc1O)[C@@]1(C)CCCC(C)(C)[C@@H]1C[C@H]2CC1=CCC(O)(C(C)C)CC1 (stereo partly drawn) [Compound 6, 7-(menth-1-en-4-ol)-ferruginol]
GI50 ([1]; 48 h, read-out: Cytotoxic activity (GI50) PC-3): 54.2 ± 5.9 µM
GI50 ([1]; Table 1, read-out: Activity against human prostate tumor PC-3 (GI50) (converted)): 54.2 µM
Effect on proliferation of BxPC-3 cells (in words) [2]: inhibit human pancreatic cancer cell proliferation in a dose-dependent manner
GI50 ([3]; PANC-1, 48 h, read-out: Cytotoxic activity (GI50) PANC-1): 60.4 ± 16.2 µM
GI50 [3, 10]: 60.4 µM
GI50 ([4]; BXPC-3, 48 h, read-out: Cytotoxic activity (GI50) BxPC-3): 87.3 ± 24.5 µM
GI50 [4, 11]: 87.3 µM
GI50 (human leukemia (HL-60); HL-60, 48 h, read-out: Cytotoxic activity (GI50) HL-60): 48.1 ± 10.9 µM
GI50 (human leukemia (HL-60); HL-60, Table 1, read-out: Activity against human leukemia HL-60 (GI50) (converted)): 48.1 µM
GI50 ([5]; MDA-MB-231, 48 h, read-out: Cytotoxic activity (GI50) MDA-MB-231): 75 ± 1.37 µM
GI50 ([5]; MDA-MB-231, Table 1, read-out: Activity against human breast tumor MDA-MB-231 (GI50)): 75 µM
GI50 ([6]; A549, 48 h, read-out: Cytotoxic activity (GI50) A549): 62.9 ± 9.63 µM
GI50 [6, 12]: 62.9 µM
Effect on proliferation of PANC-1 cells (in words) [7]: inhibit human pancreatic cancer cell proliferation in a dose-dependent manner
GI50 ([8]; human, 48 h): 58.4 ± 6.83 µM

CC(C)c1cc2c(cc1O)[C@@]1(C)CCCC(C)(C)C1=C(O)C2=O [Compound 8, montbretol]
GI50 ([1]; Table 7, WST-8, 48 h exposure, mean ± S.D., read-out: Cytotoxic activity (GI50) PC-3): 13.2 ± 2.03 µM
Effect on proliferation of BxPC-3 cells (in words) [2]: inhibit human pancreatic cancer cell proliferation in a dose-dependent manner
GI50 [3, 10]: 23.1 µM
GI50 ([3]; PANC-1, Table 7, WST-8, 48 h exposure, mean ± S.D., read-out: Cytotoxic activity (GI50) PANC-1): 23.1 ± 9.16 µM
GI50 [4, 11]: 25 µM
GI50 ([4]; BXPC-3, Table 7, WST-8, 48 h exposure, mean ± S.D., read-out: Cytotoxic activity (GI50) BxPC-3): 25 ± 13.2 µM
GI50 (human leukemia (HL-60); HL-60, Table 7, WST-8, 48 h exposure, mean ± S.D., read-out: Cytotoxic activity (GI50) HL-60): 11.5 ± 3.13 µM
GI50 [6, 12]: 11.1 µM
GI50 ([6]; A549, Table 7, WST-8, 48 h exposure, mean ± S.D., read-out: Cytotoxic activity (GI50) A549): 11.1 ± 3.16 µM
Effect on proliferation of PANC-1 cells (in words) [7]: inhibit human pancreatic cancer cell proliferation in a dose-dependent manner
GI50 at 48 h [9]: 20 µM
Toxicity against normal cell (in words) [8]: no toxic against normal cell

— patent US10464963B2, “Compounds from invasive Salvinias and methods of using the same” (STEPHEN F. AUSTIN STATE UNIVERSITY, priority 2013, dated 2019)
